# Data published in PMC7004140, “In vitro hepatotoxicity of Petasites hybridus extract (Ze 339) depends on the concentration, the cytochrome activity of the cell system, and the species used” (Phytotherapy Research, 2019).
# Assays:
# HepG2 cells = assay: WST-1 metabolic activity (cytotoxicity) in HepG2 cells; format: cell-based, human; conditions: HepG2, up to 250 μM, 4 hr
# Description: (§1) HepG2 and H‐4‐II‐E cells were differentiated for 24 hr. HepaRG cells were directly seeded in precoated 96‐well microtiter plates and were incubated in William's medium with general purpose supplements according to manufacturer's manual until adherence. All cells were treated with Ze 339 (up to 100 μg/ml) or petasin, isopetasin, neopetasin, petasol, isopetasol, petasin mixture, fatty acid mixture, and reconstituted extracts (up to 250 μM) for 4 hr.
# (§2) In the three cell lines, cytotoxicity was defined as a decrease in metabolic activity of ≥20% in the WST‐1 assay. At the end of the experiment, 10 μl WST‐1 reagent was added to each well. Plates were then incubated for 2 hr to allow for the reduction of WST‐1 reagent. Absorbance was measured using a microplate absorbance reader (Infinite M 200, Tecan Trading Ltd., Switzerland) at 450 nm, reference wavelength of 620 nm. Due to some matrix effect, the lowest concentration (0.02 μg/ml for Ze 339 and 3.9 μM for single constituents and mixtures) of each substance tested was defined as 100% metabolic activity. Results were expressed as percentage of the control metabolic activity, and data were presented as mean values ± SEM (n = 3–6).
# (§3) Concentration‐response analysis was done using the sigmoidal Hill equation: E(t) = E0 − Emax × C(t)^N/(IC50 ^N + C(t)^N), where E is the effect at time t, E0 the effect at baseline (time = 0), IC50 the concentration yielding 50% of the maximal effect (Emax), and N denotes the sigmoidicity coefficient (Origin 2017 Software). For statistical analysis, analysis of variance with Dunnett's multicomparison test was used to correct for multiplicity of testing (IBM SPSS Statistics software, version 25, IBM Corp., USA). The level of significance was ^* p < .05, ^** p < .01 and ^*** p < .001; NS = no significance.
# H-4-II-E cells = assay: WST-1 metabolic activity (cytotoxicity) in H-4-II-E cells; format: cell-based, rat (Rattus norvegicus)
# Description: as §1, §2, §3
# HepaRG cells [1] = assay: WST-1 metabolic activity (cytotoxicity) in HepaRG cells; format: cell-based, human; conditions: 4 hr
# Description: as §1, §2, §3
# HepaRG cells [2] = assay: Coincubation of Ze 339 with single cytochrome inhibitors in HepaRG cells (WST-1); format: cell-based, human; conditions: inhibitor 10 μM, Ze 339 100 μg/ml, 4 hr
# Description: To investigate whether metabolic activation by human phase I enzymes—at least in part—contributes to the cytotoxic effect, Ze 339 (concentrations up to 100 μg/ml) was coincubated in HepaRG cells for 4 hr with different single cytochromes inhibitors: ketoconazole (CYP3A4), sulfaphenazole (CYP2C9), montelukast (CYP2C8), omeprazole (CYP2C19), α‐naphthoflavone (CYP1A2), quinidine (CYP2D6), xanthotoxin (CYP2A6), chlormethiazole (CYP2E1), and ticlopidine (CYP2B6)—(each at a concentration of 10 μM). Inhibition of metabolic activity was evaluated with the WST‐1 assay using Ze 339 without inhibitor as a control.
structure (smiles),measurement,setting,value
CC(C)=C1C[C@@]2(C)C(=CC1=O)CC[C@@H](O)[C@@H]2C [isopetasol],cytotoxic effects,HepG2 cells,did not show cytotoxic effects
same,change in metabolic activity,H-4-II-E cells; from 7.8 to 125 μM,increase in metabolic activity
same,change in metabolic activity,H-4-II-E cells; highest concentration,virtually no change
same,cytotoxicity,HepaRG cells [1]; highest concentration,not cytotoxic
CC(C)(O)c1ccccc1CC[C@@H](SCC1(CC(=O)O)CC1)c1cccc(/C=C/c2ccc3ccc(Cl)cc3n2)c1 [montelukast],effect of cytochrome inhibitor on the cytotoxic effect of Ze 339,HepaRG cells [2],attenuated
C=C(C)[C@@H]1C[C@@]2(C)C(=CC1=O)CC[C@@H](O)[C@@H]2C [petasol],cytotoxic effects,HepG2 cells,did not show cytotoxic effects
same,metabolic activity,H-4-II-E cells; concentrations ≥125 μM,up to 109%
same,change in metabolic activity,H-4-II-E cells; medium concentrations 15.6–62.5 μM,slight decrease
same,metabolic activity,HepaRG cells [1]; 250 μM,68.6%
C=C[C@H]1C[N@@]2CC[C@H]1C[C@@H]2[C@@H](O)c1ccnc2ccc(OC)cc12 [quinidine],effect of cytochrome inhibitor on the cytotoxic effect of Ze 339,HepaRG cells [2],attenuated
